According to US20090298820A1, “3-SUBSTITUTED-1H-PYRROLO[2,3-B]PYRIDINE AND 3-SUBSTITUTED-1H-PYRROLO[3,2-B]PYRIDINE COMPOUNDS, THEIR USE AS MTOR KINASE AND PI3 KINASE INHIBITORS, AND THEIR SYNTHESES” (Wyeth, priority 2008, published 2009):

Key:
mTOR = mTOR (Homo sapiens, UniProt P42345); test: mTOR enzyme assay (DELFIA format, His6-S6K substrate); type: biochemical; conditions: read-out: mTOR Kinase Median IC50
PI3Kγ = PI3Kγ (Homo sapiens, UniProt P48736); test: PI3K-gamma fluorescence polarization assay; type: biochemical; conditions: read-out: PI3Kγ Median IC50
Chain of PI3Kγ (P48736 whole entry, species assumed): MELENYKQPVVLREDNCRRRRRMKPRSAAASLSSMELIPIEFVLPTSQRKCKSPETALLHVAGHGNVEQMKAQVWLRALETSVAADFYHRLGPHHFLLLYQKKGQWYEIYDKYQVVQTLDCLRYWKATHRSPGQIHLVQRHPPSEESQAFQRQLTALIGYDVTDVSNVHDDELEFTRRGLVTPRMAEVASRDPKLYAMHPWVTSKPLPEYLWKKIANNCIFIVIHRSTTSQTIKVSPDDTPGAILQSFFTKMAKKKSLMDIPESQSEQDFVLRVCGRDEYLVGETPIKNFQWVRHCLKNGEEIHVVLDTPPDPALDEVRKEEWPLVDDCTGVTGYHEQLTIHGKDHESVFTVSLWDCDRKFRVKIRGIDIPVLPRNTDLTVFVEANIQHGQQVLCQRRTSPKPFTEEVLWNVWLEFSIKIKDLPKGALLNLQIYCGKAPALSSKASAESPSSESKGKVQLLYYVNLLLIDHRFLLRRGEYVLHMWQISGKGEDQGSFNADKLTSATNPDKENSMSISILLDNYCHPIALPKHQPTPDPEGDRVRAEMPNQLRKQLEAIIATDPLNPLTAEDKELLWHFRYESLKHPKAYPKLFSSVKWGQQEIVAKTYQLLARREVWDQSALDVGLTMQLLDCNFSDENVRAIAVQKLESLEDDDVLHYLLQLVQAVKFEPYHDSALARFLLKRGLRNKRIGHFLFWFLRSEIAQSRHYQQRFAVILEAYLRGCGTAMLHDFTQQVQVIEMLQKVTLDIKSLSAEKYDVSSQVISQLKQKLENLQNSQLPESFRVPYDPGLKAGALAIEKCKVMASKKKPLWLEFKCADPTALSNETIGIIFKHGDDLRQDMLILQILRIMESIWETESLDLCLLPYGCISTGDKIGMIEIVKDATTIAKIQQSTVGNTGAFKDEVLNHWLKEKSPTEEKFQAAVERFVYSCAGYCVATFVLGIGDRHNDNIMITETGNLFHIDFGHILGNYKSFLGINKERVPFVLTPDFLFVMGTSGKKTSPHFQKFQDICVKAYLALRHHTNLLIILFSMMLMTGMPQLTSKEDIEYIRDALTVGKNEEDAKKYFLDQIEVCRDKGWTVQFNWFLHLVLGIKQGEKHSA

PI3Kα = PI3Kα (Homo sapiens, UniProt P42336); test: PI3K-alpha fluorescence polarization assay; type: biochemical; conditions: read-out: PI3Kα Median IC50
Chain of PI3Kα (P42336 whole entry, species assumed): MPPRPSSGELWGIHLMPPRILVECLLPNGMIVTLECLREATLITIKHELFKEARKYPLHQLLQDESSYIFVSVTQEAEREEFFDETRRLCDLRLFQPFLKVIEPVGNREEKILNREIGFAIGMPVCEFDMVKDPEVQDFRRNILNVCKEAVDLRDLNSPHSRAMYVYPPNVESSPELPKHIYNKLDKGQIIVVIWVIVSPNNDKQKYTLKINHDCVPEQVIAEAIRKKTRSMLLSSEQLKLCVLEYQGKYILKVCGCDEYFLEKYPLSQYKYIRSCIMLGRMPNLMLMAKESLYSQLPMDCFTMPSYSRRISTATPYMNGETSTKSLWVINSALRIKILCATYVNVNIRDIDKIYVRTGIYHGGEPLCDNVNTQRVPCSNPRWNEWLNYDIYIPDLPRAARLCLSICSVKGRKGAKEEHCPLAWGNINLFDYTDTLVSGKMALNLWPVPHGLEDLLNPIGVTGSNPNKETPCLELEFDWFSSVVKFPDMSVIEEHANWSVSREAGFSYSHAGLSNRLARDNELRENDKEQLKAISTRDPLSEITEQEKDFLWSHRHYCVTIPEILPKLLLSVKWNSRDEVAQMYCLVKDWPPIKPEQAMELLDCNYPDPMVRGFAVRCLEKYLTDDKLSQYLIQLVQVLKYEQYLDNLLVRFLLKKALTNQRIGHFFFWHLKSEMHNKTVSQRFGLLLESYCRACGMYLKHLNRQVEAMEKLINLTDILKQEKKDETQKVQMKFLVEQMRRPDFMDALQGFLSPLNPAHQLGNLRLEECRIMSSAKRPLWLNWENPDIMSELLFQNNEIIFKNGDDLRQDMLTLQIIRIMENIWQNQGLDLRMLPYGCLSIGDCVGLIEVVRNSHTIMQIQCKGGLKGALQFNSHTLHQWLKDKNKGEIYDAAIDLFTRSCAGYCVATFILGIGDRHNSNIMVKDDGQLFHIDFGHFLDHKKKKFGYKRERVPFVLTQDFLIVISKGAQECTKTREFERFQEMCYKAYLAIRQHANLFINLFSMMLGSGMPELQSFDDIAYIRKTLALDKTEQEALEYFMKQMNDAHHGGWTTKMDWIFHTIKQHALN
Chain of PI3Kα (P27986 whole entry partner, species assumed): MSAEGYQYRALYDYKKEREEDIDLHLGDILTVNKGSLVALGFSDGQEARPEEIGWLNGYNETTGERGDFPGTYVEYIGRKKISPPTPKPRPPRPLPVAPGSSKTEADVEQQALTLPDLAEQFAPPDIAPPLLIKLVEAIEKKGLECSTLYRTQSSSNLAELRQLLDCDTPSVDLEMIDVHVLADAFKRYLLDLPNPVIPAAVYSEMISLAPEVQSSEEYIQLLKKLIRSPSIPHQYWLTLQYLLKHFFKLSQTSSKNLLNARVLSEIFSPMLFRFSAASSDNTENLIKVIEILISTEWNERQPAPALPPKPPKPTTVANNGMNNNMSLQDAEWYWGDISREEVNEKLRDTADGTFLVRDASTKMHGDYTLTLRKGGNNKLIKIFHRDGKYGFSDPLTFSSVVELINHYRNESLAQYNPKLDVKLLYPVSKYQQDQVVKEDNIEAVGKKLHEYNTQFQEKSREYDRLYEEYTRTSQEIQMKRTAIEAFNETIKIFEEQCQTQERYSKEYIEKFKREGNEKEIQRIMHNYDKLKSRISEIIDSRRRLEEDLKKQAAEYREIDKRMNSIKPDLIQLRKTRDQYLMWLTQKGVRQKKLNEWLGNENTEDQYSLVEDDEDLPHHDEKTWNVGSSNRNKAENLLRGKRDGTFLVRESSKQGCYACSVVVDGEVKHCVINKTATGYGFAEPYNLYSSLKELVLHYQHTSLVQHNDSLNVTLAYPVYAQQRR

Row | SMILES | IC50 (mTOR) [nM] | melting point | IC50 (PI3Kγ) [nM] | IC50 (PI3Kα) [nM]
1 | Cn1cc(/C=C2\Oc3cc(O)cc(O)c3C2=O)c2c(N3CCCCCC3)ccnc21 [Compound 65, (2Z)-2-[(4-azepan-1-yl-1-methyl-1H-pyrrolo[2,3-b]pyridin-3-yl)methylene]-4,6-dihydroxy-1-benzofuran-3(2H)-one] | 0.6 | 297 to 300 °C | 60 | 41
2 | Cn1cc(/C=C2\Oc3ccc(C(=O)O)cc3C2=O)c2c(-c3ccccc3)ccnc21 [Compound 176, (2Z)-2-[(1-methyl-4-phenyl-1H-pyrrolo[2,3-b]pyridin-3-yl)methylidene]-3-oxo-2,3-dihydro-1-benzofuran-5-carboxylic acid] | 445 | 329 to 342 °C | > 10000 | > 10000
3 | CN1CCN(C(=O)C2CCN(c3ccnc4c3c(/C=C3\Oc5cccc(O)c5C3=O)cn4C)CC2)CC1 [Compound 164, (2Z)-4-hydroxy-2-[(1-methyl-4-{4-[(4-methylpiperazin-1-yl)carbonyl]piperidin-1-yl}-1H-pyrrolo[2,3-b]pyridin-3-yl)methylidene]-1-benzofuran-3(2H)-one] | 3.1 | 239 to 244 °C | 131 | 39
4 | Cn1cc(/C=C2\Oc3ccc(NC(=O)Nc4cccnc4)cc3C2=O)c2c(N3CCC(C(=O)N4C5CCC4COC5)CC3)ccnc21 [Compound 292, 1-[(2Z)-2-({1-methyl-4-[4-(3-oxa-8-azabicyclo[3.2.1]oct-8-ylcarbonyl)piperidin-1-yl]-1H-pyrrolo[2,3-b]pyridin-3-yl}methylidene)-3-oxo-2,3-dihydro-1-benzofuran-5-yl]-3-pyridin-3-ylurea] | 5.4 | 197 to 203 °C | > 10000 | 3480
5 | CN(C)CCCNC(=O)Nc1ccc2c(c1)C(=O)/C(=C/c1cn(C)c3nccc(N4CC5CCC(C4)O5)c13)O2 [Compound 241, 1-[3-(dimethylamino)propyl]-3-[(2Z)-2-{[1-methyl-4-(8-oxa-3-azabicyclo[3.2.1]oct-3-yl)-1H-pyrrolo[2,3-b]pyridin-3-yl]methylene}-3-oxo-2,3-dihydro-1-benzofuran-5-yl]urea] | 10.5 | 261 to 263 °C | 34 | 53
6 | CNC(=O)Nc1ccc2c(c1)C(=O)/C(=C/c1cn(C)c3nccc(-c4ccccc4)c13)O2 [Compound 38, 1-methyl-3-{(2Z)-2-[(1-methyl-4-phenyl-1H-pyrrolo[2,3-b]pyridin-3-yl)methylene]-3-oxo-2,3-dihydro-1-benzofuran-5-yl}urea] | 37 | 265 to 270 °C (dec.) | 1570 | 234
7 | CC(=O)Nc1ccc2c(c1)C(=O)/C(=C/c1cn(C)c3nccc(N4CC5CCC(C4)O5)c13)O2 [Compound 155, N-[(2Z)-2-{[1-methyl-4-(8-oxa-3-azabicyclo[3.2.1]oct-3-yl)-1H-pyrrolo[2,3-b]pyridin-3-yl]methylidene}-3-oxo-2,3-dihydro-1-benzofuran-5-yl]acetamide] | 14.5 | 275 to 285 °C (dec.) | 306 | 150
8 | CC(=O)Nc1ccc2c(c1)C(=O)/C(=C/c1cn(C)c3nccc(-c4ccccc4)c13)O2 [Compound 154, N-{(2Z)-2-[(1-methyl-4-phenyl-1H-pyrrolo[2,3-b]pyridin-3-yl)methylidene]-3-oxo-2,3-dihydro-1-benzofuran-5-yl}acetamide] | 69 | 332 to 335 °C | 1070 | 1390
9 | Cn1cc(/C=C2\Oc3cccc(O)c3C2=O)c2c(-c3ccc(C(=O)N4CC5CCC(C4)O5)cc3)ccnc21 [Compound 144, (2Z)-4-hydroxy-2-({1-methyl-4-[4-(8-oxa-3-azabicyclo[3.2.1]oct-3-ylcarbonyl)phenyl]-1H-pyrrolo[2,3-b]pyridin-3-yl}methylidene)-1-benzofuran-3(2H)-one] | 0.6 | 296 to 298 °C | 77 | 57
10 | Cn1cc(/C=C2\Oc3ccc(NC(=O)Nc4cccnc4)cc3C2=O)c2c(N3CC4CCC(C3)O4)ccnc21 [Compound 167, 1-[(2Z)-2-{[1-methyl-4-(8-oxa-3-azabicyclo[3.2.1]oct-3-yl)-1H-pyrrolo[2,3-b]pyridin-3-yl]methylidene}-3-oxo-2,3-dihydro-1-benzofuran-5-yl]-3-pyridin-3-ylurea] | 14.3 | 226 to 230 °C | > 10000 | 2080

More lines, in order of falling IC50 (mTOR), values ahead:

Row | IC50 (mTOR) [nM] | melting point | IC50 (PI3Kγ) [nM] | IC50 (PI3Kα) [nM] | SMILES
11 | 3500 | 273 to 275 °C | 2230 | > 10000 | CNC(=O)Nc1cccc2c1C(=O)/C(=C/c1cn(C)c3nccc(-c4ccccc4)c13)O2 [Compound 99, 1-methyl-3-{(2Z)-2-[(1-methyl-4-phenyl-1H-pyrrolo[2,3-b]pyridin-3-yl)methylene]-3-oxo-2,3-dihydro-1-benzofuran-4-yl}urea]
12 | 64.5 | 158 to 163 °C | 781 | 243 | COCCN(C)CCCNC(=O)Nc1ccc2c(c1)C(=O)/C(=C/c1cn(C)c3nccc(N4CC5CCC(C4)O5)c13)O2 [Compound 242, 1-{3-[(2-methoxyethyl)(methyl)amino]propyl}-3-[(2Z)-2-{[1-methyl-4-(8-oxa-3-azabicyclo[3.2.1]oct-3-yl)-1H-pyrrolo[2,3-b]pyridin-3-yl]methylene}-3-oxo-2,3-dihydro-1-benzofuran-5-yl]urea]
13 | 34 | 170 to 172 °C | 472 | 237 | CN1CCN(CCNC(=O)Nc2ccc3c(c2)C(=O)/C(=C/c2cn(C)c4nccc(N5CC6CCC(C5)O6)c24)O3)CC1 [Compound 194, 1-[(2Z)-2-{[1-methyl-4-(8-oxa-3-azabicyclo[3.2.1]oct-3-yl)-1H-pyrrolo[2,3-b]pyridin-3-yl]methylidene}-3-oxo-2,3-dihydro-1-benzofuran-5-yl]-3-[2-(4-methylpiperazin-1-yl)ethyl]urea]
14 | 20 | 263 to 268 °C | 791 | 286 | CN(C)CCCN1CCN(c2ccnc3c2c(/C=C2\Oc4cccc(O)c4C2=O)cn3C)CC1 [Compound 118, (2Z)-2-[(4-{4-[3-(dimethylamino)propyl]piperazin-1-yl}-1-methyl-1H-pyrrolo[2,3-b]pyridin-3-yl)methylene]-4-hydroxy-1-benzofuran-3(2H)-one]
15 | 19 | 151 to 164 °C | 2410 | > 10000 | CN1CC2CC1CN2C(=O)C1CCN(c2ccnc3c2c(/C=C2\Oc4ccc(NC(=O)Nc5cccnc5)cc4C2=O)cn3C)CC1 (stereo not shown) [Compound 272, 1-{(2Z)-2-[(1-methyl-4-{4-[(5-methyl-2,5-diazabicyclo[2.2.1]hept-2-yl)carbonyl]piperidin-1-yl}-1H-pyrrolo[2,3-b]pyridin-3-yl)methylidene]-3-oxo-2,3-dihydro-1-benzofuran-5-yl}-3-pyridin-3-ylurea]
16 | 9.3 | 125 to 135 °C | 2410 | 1230 | CN(Cc1ccncc1)C(=O)C1CCN(c2ccnc3c2c(/C=C2\Oc4ccc(NC(=O)Nc5cccnc5)cc4C2=O)cn3C)CC1 [Compound 255, N-methyl-1-{1-methyl-3-[(Z)-{3-oxo-5-[(pyridin-3-ylcarbamoyl)amino]-1-benzofuran-2(3H)-ylidene}methyl]-1H-pyrrolo[2,3-b]pyridin-4-yl}-N-(pyridin-4-ylmethyl)piperidine-4-carboxamide]
17 | 6.7 | 203 °C | 487 | 420 | CNC(=O)Nc1ccc2c(c1)C(=O)/C(=C/c1cn(C)c3nccc(N4CCC(C(=O)N(C)C)CC4)c13)O2 [Compound 168, N,N-dimethyl-1-{1-methyl-3-[(Z)-{5-[(methylcarbamoyl)amino]-3-oxo-1-benzofuran-2(3H)-ylidene}methyl]-1H-pyrrolo[2,3-b]pyridin-4-yl}piperidine-4-carboxamide]
18 | 5.7 | 308 to 310 °C | 104 | 106 | Cn1cc(/C=C2\Oc3cc(O)cc(O)c3C2=O)c2c(C#Cc3ccccc3)ccnc21 [Compound 39, (2Z)-4,6-dihydroxy-2-{[1-methyl-4-(phenylethynyl)-1H-pyrrolo[2,3-b]pyridin-3-yl]methylene}-1-benzofuran-3(2H)-one]
19 | 4.4 | 258 to 263 °C | 88 | 30 | Cn1cc(/C=C2\Oc3cccc(O)c3C2=O)c2c(N3CC4CC3CO4)ccnc21 (stereo not shown) [Compound 117, (2Z)-4-hydroxy-2-{[1-methyl-4-(2-oxa-5-azabicyclo[2.2.1]hept-5-yl)-1H-pyrrolo[2,3-b]pyridin-3-yl]methylene}-1-benzofuran-3(2H)-one]
20 | 4.4 | 235 to 240 °C | 253 | 152 | Cn1cc(/C=C2\Oc3cccc(O)c3C2=O)c2c(N3CCCC(C(=O)N4CCCC4)C3)ccnc21 (stereo not shown) [Compound 109, (2Z)-4-hydroxy-2-({1-methyl-4-[3-(pyrrolidin-1-ylcarbonyl)piperidin-1-yl]-1H-pyrrolo[2,3-b]pyridin-3-yl}methylene)-1-benzofuran-3(2H)-one]
21 | 0.7 | 276 to 286 °C | 66 | 5 | Cn1cc(/C=C2\Oc3cc(O)cc(O)c3C2=O)c2c(-c3ccc(S(C)(=O)=O)cc3)ccnc21 [Compound 72, (2Z)-4,6-dihydroxy-2-({1-methyl-4-[4-(methylsulfonyl)phenyl]-1H-pyrrolo[2,3-b]pyridin-3-yl}methylene)-1-benzofuran-3(2H)-one]
22 | 0.2 | > 330 °C | 21 | 7 | Cn1cc(/C=C2\Oc3cc(O)cc(O)c3C2=O)c2c(-c3ccc(CO)cc3)ccnc21 [Compound 67, (2Z)-4,6-dihydroxy-2-({4-[4-(hydroxymethyl)phenyl]-1-methyl-1H-pyrrolo[2,3-b]pyridin-3-yl}methylene)-1-benzofuran-3(2H)-one]
